{"source": "paper PMC8278929", "about": "(Chemical Science, 2021)", "origin": "cited, not measured here", "key": {"[1]": {"conditions": "in PBS, Os/pyr/for 1:200:400"}, "[2]": {"conditions": "free, uncoordinated alcohol, no reference given"}, "[3]": {"conditions": "analogue of 11"}}, "data": [{"molecule": "[Os(η^6-p-cymene)(TsDPEN)]", "values": [{"measurement": "TOFmax", "setting": "[1]", "value": 1.5, "unit": "h⁻¹"}]}, {"molecule": "OCCCc1ccccc1", "note": "[3-phenyl-1-propanol]", "values": [{"measurement": "estimated pKa", "setting": "[2]", "value": "ca. 16"}]}, {"molecule": "[Os(η^6-C6H5C6H5)(4-Me-pico)Cl]^+", "values": [{"measurement": "ΔS^‡ (entropy of hydrolysis)", "setting": "[3]", "value": "−55.6 ± 1.6", "unit": "J K^−1 mol^−1"}]}]}
